The values that follow are results of earlier work, collected in EP0523846A2, “1,4-Benzodiazepines with 5-membered heterocyclic rings” (MERCK & CO. INC., priority 1991, dated 1993).

Structures are written as SMILES.

The conditions of this data set: background statement citing Deschodt-Lanckman et al., Reg. Pept., 2, 15 (1981).

In the case of `CSCC[C@H](NC(=O)[C@H](Cc1ccc(OS(=O)(=O)O)cc1)NC(=O)[C@@H](N)CC(=O)O)C(=O)NCC(=O)N[C@@H](Cc1c[nH]c2ccccc12)C(=O)N[C@@H](CCSC)C(=O)N[C@@H](CC(=O)O)C(=O)N[C@@H](Cc1ccccc1)C(N)=O` [CCK-8s, H-Asp-Tyr(SO₃H)-Met-Gly-Trp-Met-Asp-Phe-NH₂], the half-life result is recorded as “less than 1 hour”.
